Laboratory results published in a compilation of properties of binary mixtures (doi:10.1524/zpch.2013.0328).

Assay: xn = mol fraction of the nth substance listed
Conditions: 100 kPa

CCCCCCCCCCCCCC[P+](CCCCCC)(CCCCCC)CCCCCC.N#C[N-]C#N + O
viscosity [mPa·s]
Conditions	303.15 K	313.15 K	323.15 K	333.15 K	343.15 K	353.15 K
x1 = 0.551	138	86	53	40	28	22
x1 = 0.8444	–	196	123	82	56	41

CC[n+]1ccn(C)c1.O=S(=O)([N-]S(=O)(=O)C(F)(F)F)C(F)(F)F + O
x2 = 0.0086
Conditions	viscosity [mPa·s]
299.15 K	33
303.15 K	28
313.15 K	22
323.15 K	18
333.15 K	14
343.15 K	12

CC(CC(C)(C)C)CP(=O)([O-])CC(C)CC(C)(C)C.CCCCCCCCCCCCCC[P+](CCCCCC)(CCCCCC)CCCCCC + O
viscosity [mPa·s]
Conditions	298.15 K	303.15 K	313.15 K	323.15 K	333.15 K	343.15 K	353.15 K
x1 = 0.1299	–	105	65	42	29	22	16
x1 = 0.7942	1004	757	439	–	170	111	78

CC(C)C[P+](C)(CC(C)C)CC(C)C.Cc1ccc(S(=O)(=O)[O-])cc1 + O
viscosity [mPa·s]
Conditions	301.15 K	313.15 K	323.15 K	333.15 K	343.15 K	353.15 K
x1 = 0.4387	264	131	–	47	–	24
x1 = 0.9022	–	887	423	–	126	–

CCCCCCCCCCCCCC[P+](CCCC)(CCCC)CCCC.CCCCCCCCCCCCc1ccc(S(=O)(=O)[O-])cc1 + O
viscosity [mPa·s]
Conditions	298.15 K	303.15 K	313.15 K	323.15 K	333.15 K	343.15 K	353.15 K
x1 = 0.3452	506	365	197	–	74	54	40
x1 = 0.892	–	–	1477	750	409	238	–

CCCCCCCC[N+](C)(CCCCCCCC)CCCCCCCC.O=S(=O)([N-]S(=O)(=O)C(F)(F)F)C(F)(F)F + O
x1 = 0.8467
Conditions	viscosity [mPa·s]
298.15 K	601
303.15 K	426
323.15 K	144
333.15 K	92
353.15 K	46
